Here are results for twelve compounds from ChEMBL document CHEMBL2163241, “Human neutrophil elastase phosphonic inhibitors with improved potency of action” (J Med Chem, 2012).

As a reminder, the inhibition is the percentage by which the read-out fell short of the control.

Molecules are shown by their SMILES.

Assay [1] is described as follows: Inhibition of trypsin at 25 uM assessed as Kinact/Ki ratio incubated for 15 mins by spectrofluorometry.
The target of assay [2] is Pancreatic elastase (Sus scrofa) (UniProt P08419+P00772). The experiment in a line: Inhibition of porcine pancreatic elastase at 25 uM assessed as Kinact/Ki ratio incubated for 15 mins by spectrofluorometry. It is filed as protein assay.
The target in assay [3] is T1, Neutrophil elastase (Homo sapiens) (UniProt P08246).
T1 sequence (whole entry): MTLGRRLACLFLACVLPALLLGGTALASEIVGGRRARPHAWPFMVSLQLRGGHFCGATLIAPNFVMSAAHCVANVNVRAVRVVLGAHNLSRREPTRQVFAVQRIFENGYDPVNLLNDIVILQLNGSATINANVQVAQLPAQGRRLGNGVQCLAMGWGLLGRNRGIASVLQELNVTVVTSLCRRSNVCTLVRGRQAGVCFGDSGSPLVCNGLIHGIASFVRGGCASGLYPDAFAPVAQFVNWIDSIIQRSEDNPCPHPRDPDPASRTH
The experiment in a line: Inhibition of human leukocyte elastase at 25 uM assessed as Kinact/Ki ratio incubated for 15 mins by spectrofluorometry.

Assay [4] in a line: Inhibition of chymotrypsin at 25 uM assessed as Kinact/Ki ratio incubated for 15 mins by spectrofluorometry.
The species entered for assay [5] is Homo sapiens. The experiment in a line: Selectivity ratio of Kinact/Ki ratio for chymotrypsin to Kinact/Ki ratio for human leukocyte elastase.

Take `CC(C)C(NC(=O)[C@@H]1CCCN1C(=O)[C@@H](NC(=O)OC(C)(C)C)C(C)C)P(=O)(Oc1ccc(C(C)(C)C)cc1)Oc1ccc(C(C)(C)C)cc1` (mixture of isomers): the inhibition in assay [1] and in assay [4] was under 5% in each case. In addition, the Ratio in assay [2] came to 700 M⁻¹ s⁻¹; in assay [3], 3450 M⁻¹ s⁻¹.

With `CC(C)[C@H](NC(=O)OC(C)(C)C)C(=O)N1CCC[C@H]1C(=O)NC(C)P(=O)(Oc1ccc(C(C)(C)C)cc1)Oc1ccc(C(C)(C)C)cc1` (mixture of isomers), in assay [1], the inhibition is under 5%. Also, the Ratio in assay [2], in assay [3] and in assay [4] was under 50 M⁻¹ s⁻¹ each time.

Turning to `CC(C)c1ccc(OP(=O)(Oc2ccc(C(C)C)cc2)C(C)NC(=O)[C@@H]2CCCN2C(=O)[C@@H](NC(=O)OC(C)(C)C)C(C)C)cc1` (mixture of isomers), the inhibition in assay [1] is under 5%. The Ratio was 300 M⁻¹ s⁻¹ in assay [2], under 50 M⁻¹ s⁻¹ in assay [3] and under 50 M⁻¹ s⁻¹ in assay [4].

In the case of `CCC(NC(=O)[C@@H]1CCCN1C(=O)[C@@H](NC(=O)OC(C)(C)C)C(C)C)P(=O)(Oc1ccccc1)Oc1ccccc1` (mixture of isomers), the Ratio in assay [1] is under 50 M⁻¹ s⁻¹; in assay [2] it was 12700 M⁻¹ s⁻¹; in assay [3], 7100 M⁻¹ s⁻¹; in assay [4] it was under 50 M⁻¹ s⁻¹.

With `CCCC(NC(=O)[C@@H]1CCCN1C(=O)[C@@H](NC(=O)OC(C)(C)C)C(C)C)P(=O)(Oc1ccc(C(C)(C)C)cc1)Oc1ccc(C(C)(C)C)cc1` (mixture of isomers), the inhibition in assay [1] and in assay [4] was under 5% each time. Moreover, the Ratio in assay [2] and in assay [3] was under 50 M⁻¹ s⁻¹ throughout.

`CCCC(NC(=O)[C@@H]1CCCN1C(=O)[C@@H](NC(=O)OC(C)(C)C)C(C)C)P(=O)(Oc1ccc(SC)cc1)Oc1ccc(SC)cc1` (mixture of isomers): the Ratio in assay [5] was found to be 20; in assay [1], 420 M⁻¹ s⁻¹; in assay [2], 54800 M⁻¹ s⁻¹; in assay [3] it was 56200 M⁻¹ s⁻¹; in assay [4], 2800 M⁻¹ s⁻¹.

As for `CCCCC(NC(=O)[C@@H]1CCCN1C(=O)[C@@H](NC(=O)OC(C)(C)C)C(C)C)P(=O)(Oc1ccc(SC)cc1)Oc1ccc(SC)cc1` (mixture of isomers), the Ratio was 2 in assay [5]; under 50 M⁻¹ s⁻¹ in assay [1]; 9700 M⁻¹ s⁻¹ in assay [2]; 8100 M⁻¹ s⁻¹ in assay [3]; 4250 M⁻¹ s⁻¹ in assay [4].

On to `CCc1ccc(OP(=O)(Oc2ccc(CC)cc2)C(C)NC(=O)[C@@H]2CCCN2C(=O)[C@@H](NC(=O)OC(C)(C)C)C(C)C)cc1` (mixture of isomers), for which the inhibition in assay [1] is under 5%. Besides, the Ratio was 1100 M⁻¹ s⁻¹ in assay [2], 870 M⁻¹ s⁻¹ in assay [3] and under 50 M⁻¹ s⁻¹ in assay [4].

On to `CCc1ccc(OP(=O)(Oc2ccc(CC)cc2)C(CC)NC(=O)[C@@H]2CCCN2C(=O)[C@@H](NC(=O)OC(C)(C)C)C(C)C)cc1` (mixture of isomers), for which the Ratio in assay [1] was under 50 M⁻¹ s⁻¹; in assay [2], 4210 M⁻¹ s⁻¹; in assay [3], 1380 M⁻¹ s⁻¹; in assay [4] it was under 50 M⁻¹ s⁻¹.

As for `CCc1ccc(OP(=O)(Oc2ccc(CC)cc2)C(NC(=O)[C@@H]2CCCN2C(=O)[C@@H](NC(=O)OC(C)(C)C)C(C)C)C(C)C)cc1` (mixture of isomers), the inhibition in assay [1] and in assay [4] was under 5% each time. Further, the Ratio came out at 6000 M⁻¹ s⁻¹ in assay [2] and 6800 M⁻¹ s⁻¹ in assay [3].

Take `CSc1ccc(OP(=O)(Oc2ccc(SC)cc2)C(C)NC(=O)[C@@H]2CCCN2C(=O)[C@@H](NC(=O)OC(C)(C)C)C(C)C)cc1` (mixture of isomers): the Ratio is under 50 M⁻¹ s⁻¹ in assay [1], 11400 M⁻¹ s⁻¹ in assay [2], 3500 M⁻¹ s⁻¹ in assay [3] and under 50 M⁻¹ s⁻¹ in assay [4].

For the compound `CSc1ccc(OP(=O)(Oc2ccc(SC)cc2)C(NC(=O)[C@@H]2CCCN2C(=O)[C@H](CC(C)C)NC(=O)OCc2ccccc2)C(C)C)cc1` (mixture of isomers), the inhibition in assay [1] is under 5%. The values for the Ratio in assay [2], in assay [3] and in assay [4] were 1000 M⁻¹ s⁻¹, 86200 M⁻¹ s⁻¹ and 800 M⁻¹ s⁻¹, respectively.
